Assay results as given in article PMC10527105, “Chirality Matters: Fine-Tuning of Novel Monoamine Reuptake Inhibitors Selectivity through Manipulation of Stereochemistry” (Biomolecules, 2023).
Entries after “also recorded” stand apart in the source; their conditions may differ.

Key:
[1] = tested on: extracellular DA levels in the hippocampus; test: In vivo micro-dialysis in freely moving mice; parameters: species or system C57BL76J mice; details: for treatment effect on extracellular DA levels in hippocampus: 1 mg/kg i.p., experimental day 1; for time course of extracellular DA levels after the peak / increase of extracellular DA levels in hippocampus: 10 mg/kg i.p.; for time course of extracellular DA levels after the peak: experimental day 2; for increase of extracellular DA levels in hippocampus: experimental day 2, within 20 min of administration, relative to baseline
Description: Male, adult C57BL76J mice (Janvier-Labs, Saint Berthevin, France) were group-housed in individually ventilated cages under standard laboratory conditions (temperature 22 ± 2 °C, humidity 45–65%, with a 12:12 h light-dark cycle lights on at 07:00 h). Animals had free access to food and water. All experimental procedures were approved by the Austrian Animal Experimentation Ethical Committee (Bundesministerium für Wissenschaft, Forschung und Wirtschaft, Kommission für Tierversuchsangelegenheiten) in compliance with international laws and policies.
Under isoflurane anesthesia (at 5% and 1.5% for induction and maintenance, respectively), a commercially available guide cannula (MAB 4.15 with OD 0.48 mm and ID 0.35 mm, Microbiotech, Stockholm, Sweden) was implanted above the right hippocampus (AP = −2.1 mm, ML = +1.5 mm, DV = −0.7 mm from Bregma) and closed with a dummy probe as described previously. After surgery, animals received buprenorphine (0.5 mg/kg s.c.) and meloxicam (1.0 mg/kg p.o. via the drinking water) for analgesic care. They were allowed to recover for 5–7 days while being single-housed and habituated to the experimenter and experimental procedures. On the day before the experiment, the dummy was replaced by a microdialysis probe (MAB 4.15.1 PES, Microbiotech, Sweden) that extended the guide cannula by 1 mm, thus reaching into the dorsal hippocampus. Microdialysis probes were connected to a microinfusion pump (CMA, Stockholm, Sweden) and a swivel-tether system via polyethylene tubing. Probes were constantly superfused with artificial cerebrospinal fluid (aCSF); consisting of in mM: 140 NaCl, 3.0 KCl, 1.2 CaCl2, 1.0 MgCl2, 1.0 Na2HPO4, pH 7.4, at a flow rate of 0.5 µL/min overnight and 1.0 µL/min during sample collection, respectively. Microdialysis fractions were collected every 20 min in pre-cooled microtubes containing antioxidative protection solution (in mM: 0.27 Na2EDTA, 100 acetic acid, 0.0125 ascorbic acid), vortexed, and immediately frozen at −80 °C until further analysis. At any time, the dead volumes generated by the inlet and outlet systems were considered to cause a temporal delay in fraction collection.
On experimental day 1, vehicle (30% Kolliphor EL) or one of the two enantiomers -7h and 8h (1 mg/kg) was administered i.p. after six baseline samples, and another 12 samples were collected. On experimental day 2, the collection of dialysates was resumed. Again, 6 baseline samples and 12 samples after the administration of either vehicle (30% Kolliphor EL) or 7h/8h (10 mg/kg) were collected. At the end of the experiment, microdialysis probes were superfused with high (100 mM) depolarizing concentrations of potassium (K^+) containing aCSF in order to elicit local […] for testing the functionality of the microdialysis system. Thereafter, animals were euthanized with an overdose of thiopental, decapitated, and their brains removed. The localization of the microdialysis probe was verified by observing cresyl violet-stained coronal sections (40 µm) under a light microscope. Three animals were removed from the analysis due to misplaced probes.
Quantification of dopamine in microdialysates. The quantification of dopamine in microdialysates was performed using a high-performance liquid chromatography (HPLC) system for electrochemical detection, as previously described. The HPLC system consisted of a Shimadzu (Kyoto, Japan) system controller (CBM-20A), a degassing unit (DGU-20A3R), and a micro HPLC pump (LC-20AD) operating at a flow rate of 55 µL/min. Microdialysis samples (5 µL) were injected via a SIL-20ACHT autosampler (Shimadzu, Japan) and separated on a C18 reversed-phase column (Inertsil ODS-3; 50 mm × 1.0 mm ID; 3 µm particle sizes, GL Sciences Inc., Tokyo, Japan) placed in a DECADE II electrochemical detector equipped with an amperometric flow cell (Antec, Zoeterwoude, The Netherlands). […]

[2] = target: T1, noradrenaline transporter/SLC6A2 (NET) (Homo sapiens, UniProt P23975); test: Cellular uptake experiments: [3H]-noradrenaline reuptake inhibition in transporter-expressing HEK293 cells; type: cell-based
T1 construct: expressed in transfected cells; host or cells: HEK293
Method in brief: (§1)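 Stably transfected HEK293 cells preincubated 5 min with compound, then 1 µM [3H]-substrate for 2.5 min (SERT: 5 min) at 25 °C, pH 7.1 buffer; uptake counted by scintillation. Nonspecific uptake defined with 10 µM mazindol (DAT, NET) or 10 µM clomipramine (SERT).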

[3] = target: T2, DAT-expressing SK-N-MC cells (Homo sapiens, UniProt Q01959); test: Superfusion experiments: [3H]MPP+ efflux and d-amphetamine interaction; type: cell-based; details: for action on the dopamine-releasing effect of D-amphetamine: 3 µM D-amphetamine; for efflux-increasing (releasing) action on DAT-expressing, substrate-loaded superfused cells: compound alone
T2 construct: expressed in transfected cells; host or cells: SK-N-MC (human neuroblastoma)

[4] = target: T3, human serotonin transporter/SLC6A4 (SERT) (Homo sapiens, UniProt P31645); test: Cellular uptake experiments: [3H]-serotonin reuptake inhibition in transporter-expressing HEK293 cells; type: cell-based; details: Reuptake Inhibition (IC50 ± SE, µM) SERT, cells stably expressing SERT; [3H]-serotonin 1 µM; screening cut-off 50 µM
T3 construct: expressed in transfected cells; host or cells: HEK293
Method in brief: as §1

[5] = target: T4, human dopamine transporter/SLC6A3 (DAT) (Homo sapiens, UniProt Q01959); test: Cellular uptake experiments: [3H]-dopamine reuptake inhibition in transporter-expressing HEK293 cells; type: cell-based; details: Reuptake Inhibition (IC50 ± SE, µM) DAT, cells stably expressing DAT; [3H]-dopamine 1 µM; screening cut-off 50 µM
T4 construct: expressed in transfected cells; host or cells: HEK293
Method in brief: as §1

T2 sequence (Q01959 whole entry, the tested form may be a part): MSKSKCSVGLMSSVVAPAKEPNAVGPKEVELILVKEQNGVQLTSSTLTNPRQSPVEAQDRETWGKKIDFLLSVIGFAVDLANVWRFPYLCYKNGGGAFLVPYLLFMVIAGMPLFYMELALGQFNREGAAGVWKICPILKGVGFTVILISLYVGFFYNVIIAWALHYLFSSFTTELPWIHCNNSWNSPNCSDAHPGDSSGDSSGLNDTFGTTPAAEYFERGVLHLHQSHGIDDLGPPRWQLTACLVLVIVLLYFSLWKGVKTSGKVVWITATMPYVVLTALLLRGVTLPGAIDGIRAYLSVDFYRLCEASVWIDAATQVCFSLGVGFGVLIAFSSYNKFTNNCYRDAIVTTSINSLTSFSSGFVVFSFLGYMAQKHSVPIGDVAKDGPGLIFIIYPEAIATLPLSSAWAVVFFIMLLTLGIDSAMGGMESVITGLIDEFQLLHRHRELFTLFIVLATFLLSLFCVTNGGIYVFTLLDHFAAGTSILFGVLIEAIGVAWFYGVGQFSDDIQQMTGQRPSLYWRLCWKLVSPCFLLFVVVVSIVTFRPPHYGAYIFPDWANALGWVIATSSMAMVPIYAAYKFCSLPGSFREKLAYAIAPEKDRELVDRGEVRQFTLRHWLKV
T3 sequence (P31645 whole entry): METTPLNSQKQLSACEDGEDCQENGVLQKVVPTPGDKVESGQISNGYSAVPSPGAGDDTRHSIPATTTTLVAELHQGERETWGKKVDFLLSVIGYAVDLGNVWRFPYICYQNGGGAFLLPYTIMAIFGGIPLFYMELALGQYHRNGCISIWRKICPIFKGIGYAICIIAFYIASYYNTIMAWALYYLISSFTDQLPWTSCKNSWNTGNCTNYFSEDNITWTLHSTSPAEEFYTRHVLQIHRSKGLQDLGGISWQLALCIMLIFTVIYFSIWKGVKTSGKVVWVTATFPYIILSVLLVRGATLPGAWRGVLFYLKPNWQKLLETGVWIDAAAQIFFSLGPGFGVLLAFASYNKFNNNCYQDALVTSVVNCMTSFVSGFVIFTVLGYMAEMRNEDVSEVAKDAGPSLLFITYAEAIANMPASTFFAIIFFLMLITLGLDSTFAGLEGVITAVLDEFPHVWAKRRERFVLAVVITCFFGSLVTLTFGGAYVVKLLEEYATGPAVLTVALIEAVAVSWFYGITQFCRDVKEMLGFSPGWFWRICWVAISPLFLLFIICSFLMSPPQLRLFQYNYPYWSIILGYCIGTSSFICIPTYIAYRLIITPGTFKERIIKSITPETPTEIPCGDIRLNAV
T4 sequence (Q01959 whole entry): as the sequence (Q01959 whole entry, the tested form may be a part) above
T1 sequence (P23975 whole entry): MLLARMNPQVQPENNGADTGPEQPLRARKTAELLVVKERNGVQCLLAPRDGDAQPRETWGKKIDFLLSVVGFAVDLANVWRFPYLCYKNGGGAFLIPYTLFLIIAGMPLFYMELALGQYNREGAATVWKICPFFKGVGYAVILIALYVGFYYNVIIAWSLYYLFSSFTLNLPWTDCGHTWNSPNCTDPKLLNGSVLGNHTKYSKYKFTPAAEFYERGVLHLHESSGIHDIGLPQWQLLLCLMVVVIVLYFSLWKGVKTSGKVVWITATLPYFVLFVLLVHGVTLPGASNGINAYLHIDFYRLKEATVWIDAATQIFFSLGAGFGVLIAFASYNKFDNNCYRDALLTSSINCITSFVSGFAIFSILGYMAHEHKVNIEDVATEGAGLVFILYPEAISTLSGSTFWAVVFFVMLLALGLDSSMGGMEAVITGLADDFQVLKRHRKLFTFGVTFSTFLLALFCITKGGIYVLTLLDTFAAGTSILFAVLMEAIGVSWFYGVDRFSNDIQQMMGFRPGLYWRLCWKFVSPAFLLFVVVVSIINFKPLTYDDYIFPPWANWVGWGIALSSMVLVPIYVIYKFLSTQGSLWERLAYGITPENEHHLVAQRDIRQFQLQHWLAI

| Structure (SMILES) | treatment effect on extracellular DA levels in hippocampus [1] | time course of extracellular DA levels after the peak [1] | increase of extracellular DA levels in hippocampus [1] | IC50 [2] | action on the dopamine-releasing effect of D-amphetamine [3] | efflux-increasing (releasing) action on DAT-expressing, substrate-loaded superfused cells [3] | IC50 [4] | IC50 [5] |
| --- | --- | --- | --- | --- | --- | --- | --- | --- |
| [O-][S@+](Cc1cccs1)[C@H](c1ccccc1)c1cccc(Br)c1 [Compound 8h, (R,R)-2-((((3-bromophenyl)(phenyl)methyl)sulfinyl)methyl)thiophene] | no treatment effect | constantly declined from the peak values | approximately 35% | > 50 µM | potent inhibiting action | absence of an efflux-increasing action; also recorded: lack of amphetamine-like effects | 14 ± 3 µM | 0.3 ± 0.03 µM |
| [O-][S@@+](Cc1cccs1)[C@@H](c1ccccc1)c1cccc(Br)c1 [Compound 7h, (S,S)-2-((((3-bromophenyl)(phenyl)methyl)sulfinyl)methyl)thiophene] | no treatment effect | remained elevated throughout a 2 h time period | approximately 35% | 16.4 ± 0.6 µM | potent inhibiting action | absence of an efflux-increasing action; also recorded: lack of amphetamine-like effects | > 50 µM | 0.48 ± 0.11 µM |
